Laboratory results taken from ChEMBL document CHEMBL1133397, “Fused bicyclic Gly-Asp beta-turn mimics with potent affinity for GPIIb-IIIa. Exploration of the arginine isostere” (Bioorg Med Chem Lett, 2000).

What was measured:
[1] = Blood level after a 10 mg/kg oral dose in rat expressed as Cmax was determined; assay type: ADME, organism-based; set-up: dose 10 mg/kg, route oral
[2] = Blood level after a 10 mg/kg oral dose in rat expressed as AUC was determined; assay type: ADME, organism-based; set-up: dose 10 mg/kg, route oral
Homo sapiens = species on record: Homo sapiens; assay: The compound was evaluated for reduction of ADP-induced human platelet aggregation response by 50% using PRP assay; assay type: functional, organism-based
[3] = biological target: Integrin alpha-IIb/beta-3 (Homo sapiens, UniProt P05106+P08514); assay: Inhibition of fibrinogen binding to purified human GPIIb-IIIa in ELISA; assay type: protein-complex assay
Sequence of Integrin alpha-IIb/beta-3 (P05106 27-788 limits assumed): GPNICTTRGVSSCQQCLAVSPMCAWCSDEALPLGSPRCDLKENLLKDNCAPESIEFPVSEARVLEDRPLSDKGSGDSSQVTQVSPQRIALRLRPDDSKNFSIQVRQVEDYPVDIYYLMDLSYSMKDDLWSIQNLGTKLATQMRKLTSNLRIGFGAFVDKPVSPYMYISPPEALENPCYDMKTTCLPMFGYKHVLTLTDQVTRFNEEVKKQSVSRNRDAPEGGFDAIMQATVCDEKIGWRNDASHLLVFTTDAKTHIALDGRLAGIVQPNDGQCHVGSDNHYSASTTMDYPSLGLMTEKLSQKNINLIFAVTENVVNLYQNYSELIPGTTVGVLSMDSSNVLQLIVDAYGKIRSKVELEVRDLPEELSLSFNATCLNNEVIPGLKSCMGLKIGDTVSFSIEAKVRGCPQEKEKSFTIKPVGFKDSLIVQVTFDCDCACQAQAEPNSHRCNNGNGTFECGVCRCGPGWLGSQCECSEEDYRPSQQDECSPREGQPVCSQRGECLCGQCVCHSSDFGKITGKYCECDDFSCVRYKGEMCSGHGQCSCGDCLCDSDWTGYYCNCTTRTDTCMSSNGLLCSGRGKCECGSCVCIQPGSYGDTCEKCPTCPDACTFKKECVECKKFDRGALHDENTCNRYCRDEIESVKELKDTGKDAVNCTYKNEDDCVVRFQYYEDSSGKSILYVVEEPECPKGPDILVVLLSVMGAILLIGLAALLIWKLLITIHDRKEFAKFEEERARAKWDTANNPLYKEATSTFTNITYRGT
Sequence of Integrin alpha-IIb/beta-3 (P08514 32-887 limits assumed): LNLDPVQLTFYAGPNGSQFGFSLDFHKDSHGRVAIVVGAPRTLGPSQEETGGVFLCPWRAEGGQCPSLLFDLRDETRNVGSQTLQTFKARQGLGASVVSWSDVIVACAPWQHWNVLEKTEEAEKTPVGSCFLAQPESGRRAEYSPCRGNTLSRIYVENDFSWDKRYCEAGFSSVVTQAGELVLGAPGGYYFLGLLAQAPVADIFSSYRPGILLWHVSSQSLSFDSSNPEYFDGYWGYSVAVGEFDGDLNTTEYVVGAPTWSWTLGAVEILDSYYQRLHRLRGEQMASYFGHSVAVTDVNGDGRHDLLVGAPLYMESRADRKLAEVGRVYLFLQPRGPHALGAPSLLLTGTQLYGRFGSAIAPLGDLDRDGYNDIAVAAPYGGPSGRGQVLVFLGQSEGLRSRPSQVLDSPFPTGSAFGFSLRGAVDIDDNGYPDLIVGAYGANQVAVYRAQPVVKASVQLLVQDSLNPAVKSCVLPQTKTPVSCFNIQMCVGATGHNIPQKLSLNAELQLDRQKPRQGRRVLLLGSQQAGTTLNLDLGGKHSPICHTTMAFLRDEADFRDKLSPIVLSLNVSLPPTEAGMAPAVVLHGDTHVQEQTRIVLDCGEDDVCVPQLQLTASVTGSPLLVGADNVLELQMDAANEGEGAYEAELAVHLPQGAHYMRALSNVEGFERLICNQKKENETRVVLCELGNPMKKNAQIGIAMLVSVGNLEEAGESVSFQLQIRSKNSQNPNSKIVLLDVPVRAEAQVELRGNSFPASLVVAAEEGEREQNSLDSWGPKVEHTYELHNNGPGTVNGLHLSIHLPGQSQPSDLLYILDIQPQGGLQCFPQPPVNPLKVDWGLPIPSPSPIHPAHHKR
Sequence of Integrin alpha-IIb/beta-3 (P08514 891-1039 limits assumed): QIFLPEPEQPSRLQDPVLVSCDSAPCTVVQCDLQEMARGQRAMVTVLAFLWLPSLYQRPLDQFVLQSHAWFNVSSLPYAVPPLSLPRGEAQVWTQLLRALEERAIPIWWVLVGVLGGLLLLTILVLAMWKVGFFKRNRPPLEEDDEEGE

| Cmax [1] [ng/mL] | AUC [2] [ng·h/mL] | IC50 (Homo sapiens) [nM] | IC50 [3] [nM] | SMILES |
| --- | --- | --- | --- | --- |
| 3630 | 11200 | – | – | N=C(N)c1ccc(C(=O)Nc2ccc3c(c2)CCC(CC(=O)O)C3=O)cc1 (configuration not stated) |
| 2700 | 8140 | 360 | 26 | O=C(O)CC1CCc2cc(NC(=O)/C=C/C3CCNCC3)ccc2C1=O (configuration not stated) |
| 4020 | 11900 | 100 | 3 | N=C(N)c1ccc(C(=O)Nc2ccc3c(c2)CCC(CC(=O)O)C3=O)c(F)c1 (configuration not stated) |
| 2020 | 6410 | 240 | 5 | N=C(N)c1cc(F)c(C(=O)Nc2ccc3c(c2)CCC(CC(=O)O)C3=O)c(F)c1 (configuration not stated) |
| – | – | 18000 | – | O=C(O)CC1CCc2cc(NC(=O)COC3CCNCC3)ccc2C1=O (configuration not stated) |
| – | – | 5500 | 610 | O=C(O)CC1CCc2cc(NCCCC3CCNCC3)ccc2C1=O (configuration not stated) |
| – | – | 910 | 71 | O=C(O)CC1CCc2cc(NC(=O)CCC3CCNCC3)ccc2C1=O (configuration not stated) |
| – | – | 2000 | 72 | N=C(N)c1ccc(C(=O)Nc2ccc3c(c2)CCC(CC(=O)O)C3=O)c(C(F)(F)F)c1 (configuration not stated) |
| 1170 | 3560 | 220 | 9 | N=C(N)c1ccc(C(=O)Nc2ccc3c(c2)CCC(CC(=O)O)C3=O)cn1 (configuration not stated) |
| – | – | 9000 | 210 | N=C(N)c1ccc(C(=O)Nc2ccc3c(c2)CCC(CC(=O)O)C3=O)s1 (configuration not stated) |
| 3110 | 10400 | 400 | – | N=C(N)c1ccc(C(=O)Nc2ccc3c(c2)CCC(CC(=O)O)C3=O)c(Cl)c1 (configuration not stated) |
| – | – | 1800 | 330 | O=C(O)CC1CCc2cc(NC(=O)OCC3CCNCC3)ccc2C1=O (configuration not stated) |
